Experimental data as given in patent publication US20200138855A1, “NOVEL ANTINEOPLASTIC DRUG BASED ON SPECIFICITY OF CANCER-CELL METABOLISM” (priority 2017, published 2020).
Structures can show the parent of a compound that is named as a salt.

Experiments:
[1] = test system: recurrent pancreatic cancer (pancreatic body cancer) (Stage IVa); assay: Example 2: case of recurrent pancreatic cancer (pancreatic body cancer); type: in vivo, human
Description: Patient with recurrent pancreatic cancer (pancreatic body cancer) (Stage IVa)
The patient also had diabetes.

pancreatic cancer = settings: diabetic patients taking metformin versus those taking no metformin; cited from earlier work
human lung cancer cells = settings: pHi of human lung cancer cells rises from 7.0 to 7.4; cited from earlier work
[2] = test system: colorectal cancer cells having a mutation in KRAS gene and BRAF gene; settings: contact with high-concentration vitamin C; cited from earlier work

## Nc1ccn([C@@H]2O[C@H](CO)[C@@H](O)C2(F)F)c(=O)n1 [Gemzar, gemcitabine]
[1]; Gemzar 800 mg/m^2 every other week alone (Oct-Dec 2016), combination from mid February 2017 (NaHCO3 3 g/day, vitamin C 25 g/day once a week, metformin hydrochloride 250 mg/day)
  level of tumor marker (CA19-9): significantly increased
[1]; middle of December 2016, Gemzar 800 mg/m^2 every other week alone
  MRI inspection: suspected to have peritoneal dissemination

## CN(C)C(=N)NC(=N)N [metformin]
Pancreatic cancer
  reduction of risk of development of pancreatic cancer: 62%

## COc1cccc2c1C(=O)c1c(O)c3c(c(O)c1C2=O)C[C@@](O)(C(=O)CO)C[C@@H]3O[C@H]1C[C@H](N)[C@H](O)[C@H](C)O1 [doxorubicin hydrochloride]
Human lung cancer cells
  increase of resistance to the anti-cancer agent: 2,000 times

## O=C1O[C@H]([C@@H](O)CO)C(O)=C1O [vitamin C, L-ascorbic acid]
[2]
  effect on the cells: killed
